{"source": "patent US7977107B2", "about": "“Oral detection test for cannabinoid use” (LabOne, Inc., priority 2004, dated 2011)", "key": {"[1]": {"experiment": "Δ^9-THC metabolism in oral fluid (incubation at about 37° C., THCA assayed versus time)", "type": "in vitro ADME", "conditions": "10 ng/ml Δ^9-THC in certified negative oral fluid, several hours, triplicate", "experimental": "In this example, Δ^9-THC metabolism in oral fluid was investigated. Δ^9-THC was incubated at about 37° C. in oral fluid for several hours. THCA levels were assayed versus time to ensure metabolism of Δ^9-THC to THCA or THCA-glucuronide in the oral cavity or mucosa was not a possible source of the measured result. This was performed in triplicate at 10 ng/ml using certified negative oral fluid samples. Δ^9-THC standard material of known purity was used.\nΔ^9-THC metabolism to THCA was not detected during this experiment. Further, it has been reported that Δ^9-THC metabolism occurs in the liver. See Watanabe, et al., A cytochrome P450 isozyme having aldehyde oxygenase activity plays a major role in metabolizing cannabinoids by mouse hepatic microsomes, Biochem Pharmacol., Vol. 46 No. 3, at pp. 405-11 (August 1993)."}, "[2]": {"experiment": "Detection of THCA in oral fluid samples of test subjects by GC/MS/MS", "type": "in vivo, human", "conditions": "Group C: 26 samples screened and confirmed positive for Δ^9-THC", "description": "Oral fluid samples from 223 test subjects were collected with a commercially available INTERCEPT® oral fluid collection device manufactured by OraSure Technologies, Inc. (Bethlehem, Pa.) in accordance with the manufacturer's instructions. This device comprises an absorbent collection pad (e.g., cotton or a sponge) affixed to the end of a handle. The collection pad of the collection device is placed in the mouth of the subject until the collection pad is substantially saturated with oral fluid, which typically takes about four minutes.\nThe oral fluid samples were obtained from two drug testing facilities. The samples were divided into three groups: negative screens (A), positive screens (B), and positive confirms (C). Group A consisted of 144 oral fluid samples that had been tested by ELISA for the parent compound Δ^9-THC and were negative for this test (cutoff 4.0 ng/ml Δ^9-THC, cross reactive with THCA at 0.33 ng/ml, no confirmation with GC/MS/MS performed). […] Finally, Group C consisted of 26 oral fluid samples that screened positive by ELISA for the parent compound Δ^9-THC and were also confirmed positive for Δ^9-THC by GC/MS/MS. Each of these samples from Group A, B, and C was then tested for the presence or absence of THCA by GC/MS/MS in accordance with the present invention. […]\nQuantitation was performed using the internal standard area of the 495-peak ratio with the 492-peak. […]"}}, "data": [{"compound": "CCCCCc1cc(O)c2c(c1)OC(C)(C)[C@@H]1CCC(C)=C[C@@H]21", "note": "[Δ^9-THC, Δ^9-tetrahydrocannabinol]", "values": [{"measurement": "Δ^9-THC metabolism to THCA", "setting": "[1]", "value": "not detected"}]}, {"compound": "11-nor-Δ^9-THC carboxylic acid [THCA]", "values": [{"measurement": "THCA level in oral fluid (highest)", "setting": "[2]", "value": "≤ 142", "unit": "pg/mL"}]}]}
